Assays:
[1] = molecular target: T1, HCV polymerase (NS5B570n-Con1) (Hepatitis C virus genotype 1b, UniProt Q9WMX2); experiment: biochemical; set-up: species or system HCV Con1 strain
T1 construct: a 21 amino acid C-terminal deletion of full-length HCV polymerase; made in house; host or cells: E. coli BL21(DE3) pLysS, plasmid pET17b
Description: The enzymatic activity of HCV polymerase (NS5B570n-Con1) was measured as the incorporation of radiolabeled nucleotide monophosphates into acid insoluble RNA products. Unincorporated radiolabeled substrate was removed by filtration and scintillant was added to the washed and dried filter plate containing radiolabeled RNA product. The amount of RNA product generated by NS5B570n-Con1 at the end of the reaction was directly proportional to the amount of light emitted by the scintillant.
The HCV polymerase used in the enzymatic activity assay is a 21 amino acid C-terminal deletion of full-length HCV polymerase derived from HCV Con1 strain, genotype 1b (GenBank accession number AJ242654) (NS5B570n-Con1). The NS5B570n-Con1 was sub-cloned downstream to the T7 promoter of the plasmid expression construct pET17b and transformed into E. coli strain BL21(DE3) pLysS for protein expression. A single colony was used to start an innoculum for a 10 L culture in LB media supplemented with 100 μg/mL ampicillin at 37° C. Protein expression was induced by the addition of 0.25 mM isopropyl-β-D-thiogalactopyranoside (IPTG) when the optical density of the culture at […] was 0.8. Induction of protein expression was carried out at 30° C. for 16 h after which the cells were harvested by centrifugation. NS5B570n-Con1 was purified to homogeneity using a three-column purification protocol including subsequent column chromatography on Ni-NTA, SP-Sepharose HP and Superdex 75 resins.
Enzymatic reactions in the presence of cIRES RNA template (see section [0300]) contained 20 nM cIRES RNA, 20 nM NS5B570n-Con1 enzyme, 0.5 μCi of tritiated UTP (Perkin Elmer catalog no. TRK-412; specific activity: 30 to 60 Ci/mmol), 1 μM each ATP, CTP, and GTP, 40 mM Tris-HCl pH 8.0, 40 mM NaCl, 4 mM DTT (dithiothreitol), 4 mM MgCl2, 5 μl of compound serial diluted in DMSO, and nuclease-free water to a final reaction volume of 50 μl. Enzymatic reactions in the presence of 20 nM cIRES template, 20 nM NS5B570n-Con1 enzyme, 1 μCi of tritiated UTP (Perkin Elmer catalog no. TRK-412; specific activity: 30 to 60 Ci/mmol), 40 mM Tris-HCl pH 8.0, 40 mM NaCl, 4 mM DTT (dithiothreitol), 4 mM MgCl2, 5 μl of compound serial diluted in DMSO, and nuclease-free water to a final reaction volume of 50 μl. Reaction mixtures were assembled in 96-well filter plates (cat #MADVNOB, Millipore Co.) and incubated for 2 h at 30° C. Reactions were stopped by addition of 10% final (v/v) trichloroacetic acid and incubated for 40 min at 4° C. Reactions were filtered, washed with 8 reaction volumes of 10% (v/v) trichloroacetic acetic acid, 4 reaction volumes of 70% (v/v) ethanol, air dried, and 25 μl of scintillant (Microscint 20, Perkin-Elmer) was added to each reaction well.
Two RNA templates can be used to assay compounds described herein. The cIRES RNA template is 377 nucleotide long and consisting of a partial complementary sequence (36 nucleotides) of the core protein, followed by 341 nucleotide of the complementary sequence of the internal ribosome entry site. The poly A RNA template (GE Amersham catalog number 27-4110) was a homopolymeric RNA pre-annealed to a oligo(rU)16 primer at a molar ratio of 3-to-1 (primer-template). The cIRES template was used in the assay unless otherwise noted.
The amount of light emitted from the scintillant was converted to counts per minute (CPM) on a Topcount® plate reader (Perkin-Elmer, Energy Range: Low, Efficiency Mode Normal, Count Time: 1 min, Background Subtract: none, Cross talk reduction: Off).
Data was analyzed in Excel® (Microsoft®) and ActivityBase® (Idbs®). The reaction in the absence of enzyme was used to determine the background signal, which was subtracted from the enzymatic reactions. […] All data was expressed as a percentage of the positive control. The compound concentration at which the enzyme-catalyzed rate of RNA synthesis was reduced by 50% (IC50) was calculated by fitting

Row | SMILES | melting point | IC50 [1]
1 | CC(C)(C)c1cc(-c2ccc[nH]c2=O)cc2c(C(=O)N3CCCC(CN)C3)coc12 (stereo not drawn) [Compound I-50] | 150 to 155 °C | 51 nM
2 | CC(C)(C)c1cc(-c2ccc[nH]c2=O)cc2c(-c3cnc(N)nc3)coc12 [Compound I-89] | > 300 °C | 690 nM
3 | CC(NS(C)(=O)=O)c1ccc(-c2coc3c(C(C)(C)C)cc(-c4ccc[nH]c4=O)cc23)cc1 (stereo not drawn) [Compound I-88, N-(1-{4-[7-tert-Butyl-5-(2-oxo-1,2-dihydro-pyridin-3-yl)-benzofuran-3-yl]-phenyl}-ethyl)-methanesulfonamide] | 255 to 257 °C | 8 nM
4 | CC(C)(C)c1cc(-c2cc(F)c[nH]c2=O)cc2c(C(=O)N3CC[C@H](CNS(C)(=O)=O)C3)coc12 [Compound I-92] | 296 to 298 °C | 29 nM
5 | CC(C)S(=O)(=O)NC[C@H]1CCN(C(=O)c2coc3c(C(C)(C)C)cc(-c4ccc[nH]c4=O)cc23)C1 [Compound I-108] | 163 to 165 °C | 25 nM
6 | Cn1cc(C(N)=O)c2cc(-c3ccc[nH]c3=O)cc(C(C)(C)C)c21 [Compound I-112] | 232 to 234 °C | 778 nM
7 | CC(C)(C)c1cc(-c2ccc[nH]c2=O)cc2c(-c3ccc(N)nc3)coc12 [Compound I-96, 3-[3-(6-Amino-pyridin-3-yl)-7-tert-butyl-benzofuran-5-yl]-1H-pyridin-2-one] | 255 to 257 °C | 47 nM
8 | CC(C)(C)c1cc(-c2ccc[nH]c2=O)cc2c(C(=O)N3CCC3)coc12 [Compound I-94] | > 300 °C | 148 nM
9 | CC(C)(C)c1cc(-c2ccc[nH]c2=O)cc2c(-c3cccc(O)c3)coc12 [Compound I-34] |  | 24 nM
10 | COCCN(CCOC)C(=O)c1coc2c(C(C)(C)C)cc(-c3ccc[nH]c3=O)cc12 [Compound I-19] |  | 4350 nM
11 | CC(C)(C)c1cc(-c2ccc[nH]c2=O)cc2c(CO)coc12 [Compound I-8] |  | 515 nM
12 | CC(C)(C)c1cc(-c2ccc[nH]c2=O)cc2c(C(=O)N3CCCC(CNS(C)(=O)=O)C3)coc12 (stereo not drawn) [Compound I-90] |  | 6 nM
13 | CC(C)NC(=O)c1coc2c(C(C)(C)C)cc(-c3ccc[nH]c3=O)cc12 [Compound I-9] |  | 1540 nM
14 | CC(C)(C)c1cc(-c2ccc[nH]c2=O)cc2c(C(=O)N3CCOC(CO)C3)coc12 (stereo not drawn) [Compound I-15] |  | 325 nM
15 | CC(C)(C)c1cc(-c2ccc[nH]c2=O)cc2c(C(=O)N3CCCC(O)C3)coc12 (stereo not drawn) [Compound I-27] |  | 186 nM
16 | CC(C)CNC(=O)c1coc2c(C(C)(C)C)cc(-c3ccc[nH]c3=O)cc12 [Compound I-10] |  | 404 nM
17 | CC(C)(C)c1cc(-c2ccc[nH]c2=O)cc2c(C(=O)N3CCC[C@@H](CNS(C)(=O)=O)C3)coc12 [Compound I-101] |  | 9 nM
18 | CC(C)(C)c1cc(-c2ccc[nH]c2=O)cc2c(C(=O)N3CCCC(F)(CNS(C)(=O)=O)C3)coc12 (stereo not drawn) [Compound 124, N-{1-[7-tert-Butyl-5-(2-oxo-1,2-dihydro-pyridin-3-yl)-benzofuran-3-carbonyl]-3-fluoro-piperidin-3-ylmethyl}-methanesulfonamide] |  | 6 nM
19 | CC(C)(C)c1cc(-c2cc(F)c[nH]c2=O)cc2c(-c3ccc(CNS(C)(=O)=O)cc3)coc12 [Compound I-74] |  | 37 nM
20 | CC(=O)N1CCN(C(=O)c2coc3c(C(C)(C)C)cc(-c4ccc[nH]c4=O)cc23)CC1 [Compound I-52] |  | 1250 nM
21 | CC(C)(C)c1cc(-c2ccc[nH]c2=O)cc2c(C(=O)N3CCC[C@H]3CO)coc12 [Compound I-17] |  | 112 nM
22 | COC(=O)C1COc2c1cc(-c1ccc[nH]c1=O)cc2C(C)(C)C (stereo not drawn) [Compound I-26, 7-tert-Butyl-5-(2-oxo-1,2-dihydro-pyridin-3-yl)-2,3-dihydro-benzo furan-3-carboxylic acid methyl ester] |  | 37 nM

Source: patent publication US8067442B2, “Heterocyclic antiviral compounds” (Roche Palo Alto LLC, priority 2008, dated 2011)
